Experimental findings from patent publication US20200239530A1, “COMPOUNDS AND METHODS OF MODULATING PROTEIN DEGRADATION” (Vividion Therapeutics, Inc., priority 2017, published 2020) are described below.

The target of assay [1] is T1, PIAS4 E3 SUMO-protein ligase PIAS4 (Homo sapiens, UniProt Q8N2W9).
T1 construct: Cells were resuspended in cold PBS on ice and sonicated with a probe sonicator to achieve lysis; endogenous in cells
T1 sequence (Q8N2W9 1-510): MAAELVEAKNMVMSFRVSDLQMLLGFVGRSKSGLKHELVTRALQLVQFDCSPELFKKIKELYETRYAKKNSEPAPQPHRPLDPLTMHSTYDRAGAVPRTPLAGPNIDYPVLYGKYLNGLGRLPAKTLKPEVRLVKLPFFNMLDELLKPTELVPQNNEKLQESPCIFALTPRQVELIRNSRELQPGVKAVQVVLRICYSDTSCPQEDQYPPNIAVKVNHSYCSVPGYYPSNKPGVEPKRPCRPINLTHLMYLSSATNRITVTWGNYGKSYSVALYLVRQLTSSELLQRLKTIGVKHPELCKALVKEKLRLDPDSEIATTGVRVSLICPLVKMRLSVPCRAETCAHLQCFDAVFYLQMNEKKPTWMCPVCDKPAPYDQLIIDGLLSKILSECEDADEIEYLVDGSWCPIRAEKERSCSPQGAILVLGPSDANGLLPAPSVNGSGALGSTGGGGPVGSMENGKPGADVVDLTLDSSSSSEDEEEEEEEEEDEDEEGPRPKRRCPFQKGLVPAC
The experiment in a line: Cysteine liganding, probe competition. Type of assay: binding. Particulars: for Liganded: PIAS4 Res# 326, uniprot Q8N2W9. The essentials: (§1)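 Steps: sonicate cells in cold PBS; treat 5 mg/ml lysate with compound (25° C, 1 hr); add desthiobiotin iodoacetamide probe from a 10 mM stock (25° C, 1 hr); precipitate, reduce, alkylate, digest with trypsin; capture labelled peptides on streptavidin for analysis.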

Assay [2] has as its target T2, NEK9 Serine/threonine-protein kinase Nek9 (Homo sapiens, UniProt Q8TD19).
T2 construct: Cells were resuspended in cold PBS on ice and sonicated with a probe sonicator to achieve lysis; endogenous in cells
T2 sequence (Q8TD19 1-979): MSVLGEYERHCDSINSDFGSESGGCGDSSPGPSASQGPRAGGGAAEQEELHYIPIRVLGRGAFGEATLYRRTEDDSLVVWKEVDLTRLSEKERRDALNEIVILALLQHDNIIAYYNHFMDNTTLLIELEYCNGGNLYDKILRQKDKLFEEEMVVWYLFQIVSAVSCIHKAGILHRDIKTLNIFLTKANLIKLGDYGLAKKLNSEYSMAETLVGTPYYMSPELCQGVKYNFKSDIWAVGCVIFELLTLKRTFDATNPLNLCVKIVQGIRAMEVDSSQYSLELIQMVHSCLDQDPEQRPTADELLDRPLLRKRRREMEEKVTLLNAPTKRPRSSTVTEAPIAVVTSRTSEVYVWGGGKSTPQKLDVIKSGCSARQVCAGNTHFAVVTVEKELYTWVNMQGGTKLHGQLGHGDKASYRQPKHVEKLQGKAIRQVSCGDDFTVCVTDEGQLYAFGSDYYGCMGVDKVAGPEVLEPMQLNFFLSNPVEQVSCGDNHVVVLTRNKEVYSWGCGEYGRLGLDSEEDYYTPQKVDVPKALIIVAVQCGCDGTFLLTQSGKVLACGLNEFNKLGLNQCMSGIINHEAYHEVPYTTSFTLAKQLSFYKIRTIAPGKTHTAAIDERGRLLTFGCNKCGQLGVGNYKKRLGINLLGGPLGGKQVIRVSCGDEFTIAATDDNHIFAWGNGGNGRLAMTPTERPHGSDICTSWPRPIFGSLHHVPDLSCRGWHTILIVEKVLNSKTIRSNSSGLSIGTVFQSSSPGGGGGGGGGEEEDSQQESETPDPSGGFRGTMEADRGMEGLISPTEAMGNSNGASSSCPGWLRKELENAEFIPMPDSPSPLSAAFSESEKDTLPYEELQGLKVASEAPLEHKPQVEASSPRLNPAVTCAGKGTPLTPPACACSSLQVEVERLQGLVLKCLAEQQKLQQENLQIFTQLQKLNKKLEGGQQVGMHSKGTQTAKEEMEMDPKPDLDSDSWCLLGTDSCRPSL
Briefly: Cysteine liganding, probe competition. Type of assay: binding. The essentials:
as §1

As to `COc1ccc2c(c1)CCCN2C(=O)CCl` [KB02], the Liganded entry in assay [1] is recorded as “YES”; in assay [2] (NEK9 Res# 260, uniprot Q8TD19) it was “YES”.

`O=C(CCl)Nc1cc(C(F)(F)F)cc(C(F)(F)F)c1` [KBO3]: the Liganded entry in assay [1] is given as “YES”. The “KB03_100 uM_percent_inhibition” value in assay [1] (UniProt Q8N2W9, 100 uM) is on record as 80%. Moreover, in assay [1] (uniprot Q8N2W9), the “100 Max” value was 35.5, the 100 ave came to 30.1, the “500 Max” value was 87.0 and the 500 ave is 75.4. For the same molecule, in assay [2] (uniprot Q8TD19), the “100 Max” value is on record as 9.47, the 100 ave came out at 9.47, the “500 Max” value came to 56.18 and the 500 ave turned out to be 56.18.
